# Experimental data from patent publication US20050043289A1, “Crystalline hydrochloride of 7-(((5-amino-1,2,4-thiadiazol-3-yl) (fluoromethoxyimino)acetyl)amino)-3-((imino-1-piperazinylmethyl)methylhydrazono)-methyl-3-cephem-4-carboxylic acid” (priority 2002, published 2005).
# Where a name gives a salt, the structure may show the parent alone. Read-outs that look alike come from different tables or passages of the source.
# Legend:
# [1] = water uptake in presence of environmental moisture (stress test) / water content constancy; type: physicochemical; settings: Karl Fischer, over 6 weeks
# Source text: A monohydrochloride, produced according to the present invention, may be obtained in the form of a trihydrate, which, after appropriate drying, has a water content of ca. 7% to 10%, such as 7.3% to 9.6% (theory: 8.2%). The monohydrochloride in the form of a trihydrate may be dried, e.g. over P2O5, to a water content of 1.5%. […] The chloride content of the monohydrochloride in the form of a trihydrate is between 5% and 6% (theory: 5.5%).
# Water content (Karl Fischer): 9.6%. […] HCl (titration): 5.5%. Isopropanol-content: 0.05%. Content of a compound of formula I (based on the free base): […]. pH and [β]^20D of a 1% solution in water: pH: 4.3; [β]^20589=−167±1°
# [2] = system: Enterobacter cloacae; experiment: MIC, Agar Dilution Test and/or Micro Dilution Test (NCCLS); type: cell-based; settings: against Enterobacter cloacae
# [3] = system: methicillin resistant Staphylococcus aureus; experiment: as above; type: cell-based; settings: against methicillin resistant Staphylococcus aureus
# Source text: (§1) In particular, the compounds of the present invention show antimicrobial, e.g. antibacterial activity against aerobic and anaerobic growing bacteria, e.g. gram negative and gram positive bacteria such as Enterobacter, e.g. Enterobacter cloacae; Enterococcus, e.g. Enterococcus faecalis; Moraxella, e.g. Moraxella catarrhalis; Haemophilus, e.g. Haemophilus influenza; Klebsiella, e.g. Klebsiella edwardsii, Klebsiella pneumoniae; Streptococcus, e.g. Streptococcus pyogenes; Staphylococcus, e.g. Staphylococcus aureus MSSA (methicillin sensitive strains); Staphylococcus aureus MRSA (methicillin resistant strains); Escherichia coli; Proteus, e.g. Proteus mirabilis; Salmonella, e.g. Salmonella typhimurium; Serratia, e.g. Serratia marcescens; Pneumococci, e.g. Streptococcus pneumoniae (penicillin resistant and multi-drug resistant strains); in vitro in the Agar Dilution Test and/or Micro Dilution Test for bacteria according to National Committee for Clinical Laboratory Standards (NCCLS) 1993, • Document M7-A3, Vol. 13, No.25: “Methods for dilution Antimicrobial Susceptibility Tests for Bacteria that Grow Aerobically”—Third Edition, Approved Standard”; and • Document M11 -A3 for anaerobic bacteria in a concentration from about 0.001 to about […] (MIC), e.g. using strains including Staphylococcus aureus (ATCC 29213 and ATCC 9144); Enterococcus faecalis (ATCC 29212); Haemophilus influenza (NTCC 49247 and NCTC 11931); Escherichia coli (ATCC 25922 and ATCC 35218); Klebsiella pneumoniae (NCTC 11228); Klebsiella edwardsii (NCTC 10896); and in vivo in the septicaemia mouse model, in accordance to the method description Nr. […] E.g., mice are infected with an ED 95% of Staphylococcus aureus (ATCC 4995), Streptococcus pyogenes (ATCC 29218), Escherichia coli (Δ 12 NFI culture collection) and are treated 1.5 and 24 hours after infection. The ED 50% values ranging form ca. 0.2 to 50 mg/kg body weight are calculated by Probit analysis of the administered dosages of compounds. Activity is determined by numbers of surviving animals per group of 8 mice per dosage unit day 5 after infection. The compounds of the invention show an surprising overall activity spectrum.
# [4] = system: multi-drug resistant Pneumococcus; experiment: as above; type: cell-based; settings: Streptococcus pneumoniae; against multi-drug resistant Pneumococcus
# Source text: as §1
# [5] = system: Staphylococcus aureus (MSSA); experiment: as above; type: cell-based; settings: against Staphylococcus aureus (MSSA)
# Source text: as §1
# [6] = system: Enterococcus faecalis; experiment: as above; type: cell-based; settings: against Enterococcus faecalis
# Source text: as §1
# [7] = storage stability in solid form; type: physicochemical; settings: e.g. at 5° C.
# [8] = stability in aqueous solution; type: physicochemical; settings: pH values of 3-5, 5° C.
# [9] = solubility in water; type: physicochemical
# Source text: Thus, a compound of the present invention is appropriate for pharmaceutical administration.
MIC [2] [µg/mL],MIC [3] [µg/mL],MIC [4] [µg/mL],MIC [5] [µg/mL],MIC [6] [µg/mL],storage time with practically no or only slight decomposition [7],stability in aqueous solution [8],solubility ([9]; in water at 5°C.),"solubility ([9]; in water at room temperature, read-out: solubility) [mg/mL]",Structure (SMILES),water content constancy [1]
0.025 to 12.8,0.8 to 12.6,0.4 to 0.8,0.2 to 0.8,0.1 to 0.8,–,–,–,–,"CN(/N=C/C1=C(C(=O)O)N2C(=O)[C@@H](NC(=O)/C(=N\OCF)c3nsc(N)n3)C2SC1)C(=N)N1CCNCC1 (stereo partly shown) [Example 2, 7-{[(5-amino-1,2,4-thiadiazol-3-yl)-(Z)-(fluoromethoxyimino)acetyl]amino}-3-[(imino-1-piperazinylmethyl)methylhydrazono]-methyl-3-cephem-4-carboxylic acid in the form of a monohydrochloride and in the form of a trihydrate]",Water content constant (±6%) over 6 weeks
–,–,–,–,–,at least 4 weeks,remains stable for at least one week,≥ 2 % (w/v),~100,CN(/N=C/C1=C(C(=O)O)N2C(=O)[C@@H](NC(=O)/C(=N\OCF)c3nsc(N)n3)C2SC1)C(=N)N1CCNCC1 (stereo partly shown),–
